For 20 compounds, Activity and IC50 results are on record in ChEMBL document CHEMBL1821630, “Synthesis and antitumor activity of new sulfonamide derivatives of thiadiazolo[3,2-a]pyrimidines” (Eur J Med Chem, 2011).

The term IC50 denotes the point on the concentration scale where inhibition reaches its midpoint. A lower IC50 goes with greater potency in that assay.

The structures appear in SMILES notation. Values after ≈ are worked out from the molar mass of the structure shown. Active and inactive are the calls of the source. The calls are words filed in the database; no cut-off is given here.

The test system of one data set is Nucleic Acid. The data set can be described thus: Binding affinity to DNA using anisaldehyde reagent by TLC method. The format is nucleic-acid assay.
Settings: not given
Take `NS(=O)(=O)C1=NN2C(=NC(c3ccccc3)=CC2c2ccc([N+](=O)[O-])cc2)S1` (centres undefined): the result was inactive.

On to `NS(=O)(=O)c1nn2c(=O)cc(C(=O)NNc3ccccc3)nc2s1`, for which the result was inactive.

Turning to `Nc1ccc(C2=CC(c3ccc(Cl)cc3)N3N=C(S(N)(=O)=O)SC3=N2)cc1` (centres undefined), the outcome was Active.

As to `COc1ccc(/N=N/c2c(C)nc3sc(S(N)(=O)=O)nn3c2=O)cc1`, the outcome was inactive.

Consider `NS(=O)(=O)C1=NN2C(=NC(c3ccccc3)=CC2c2ccc(Cl)cc2)S1` (centres undefined), for which the result was Active.

For the compound `COc1ccc(C2C=C(c3ccccc3)N=C3SC(S(N)(=O)=O)=NN32)cc1OC` (centres undefined), the result was Active.

In the case of `COc1ccc(C2C=C(c3ccc(N)cc3)N=C3SC(S(N)(=O)=O)=NN32)cc1` (centres undefined), the result was inactive.

Consider `Cc1ccc(/N=N/c2c(C)nc3sc(S(N)(=O)=O)nn3c2=O)cc1`, for which the result was inactive.

On to `Cc1nc2sc(S(N)(=O)=O)nn2c(=O)c1/N=N/c1ccc([N+](=O)[O-])cc1`, for which the result was inactive.

For a further data set, the target named is Nucleic Acid. The data set can be described thus: Displacement of methyl green dye from DNA after 24 hrs by spectrophotometric analysis. The format is nucleic-acid assay.
Settings: not given
For the compound `NS(=O)(=O)C1=NN2C(=NC(c3ccccc3)=CC2c2ccc([N+](=O)[O-])cc2)S1` (centres undefined), the IC50 stood at 81 µg/mL (≈ 195 µM).

`NS(=O)(=O)c1nn2c(=O)cc(Cl)nc2s1` displayed an IC50 of 79 µg/mL (≈ 296 µM).

In the case of `NS(=O)(=O)c1nn2c(=O)cc(C(=O)NNc3ccccc3)nc2s1`, the IC50 is 81 µg/mL (≈ 221 µM).

The compound `Cc1nc2sc(S(N)(=O)=O)nn2c(=O)c1/N=N/c1ccccc1` registered a concentration for half-maximal inhibition (IC50) of 77 µg/mL (≈ 220 µM).

In turn, `Nc1ccc(C2=CC(c3ccc(Cl)cc3)N3N=C(S(N)(=O)=O)SC3=N2)cc1` (centres undefined) displayed an IC50 of 64 µg/mL (≈ 152 µM).

Regarding `Cc1cccc(C2=CC(c3ccccc3)N3N=C(S(N)(=O)=O)SC3=N2)c1` (centres undefined), the IC50 came to 72 µg/mL (≈ 187 µM).

In turn, `N=C1CC(=O)N=C2SC(S([NH-])(=O)=O)=NN12.[Na+]` gave an IC50 of 76 µg/mL.

The compound `NS(=O)(=O)C1=NN2C(=NC(c3ccccc3)=CC2c2cc([N+](=O)[O-])ccc2Cl)S1` (centres undefined) had an IC50 of 80 µg/mL (≈ 178 µM).

As for `COc1ccc(/N=N/c2c(C)nc3sc(S(N)(=O)=O)nn3c2=O)cc1`, the IC50 came to 81 µg/mL (≈ 213 µM).

In the case of `NS(=O)(=O)c1nn2c(=O)ccnc2s1`, the IC50 is 70 µg/mL (≈ 301 µM).

As to `NS(=O)(=O)C1=NN2C(=NC(c3ccccc3)=CC2c2ccc(Cl)cc2)S1` (centres undefined), the IC50 was determined as 40 µg/mL (≈ 98.8 µM).

`CC[n+]1c(-c2ccccc2)c2cc(N)ccc2c2ccc(N)cc21.[Br-]` [HOMIDIUM BROMIDE] registered an IC50 of 1.4 µg/mL.

Regarding `COc1ccc(C2C=C(c3ccccc3)N=C3SC(S(N)(=O)=O)=NN32)cc1OC` (centres undefined), the IC50 stood at 62 µg/mL (≈ 144 µM).

`Cc1cc(=O)n2nc(S(N)(=O)=O)sc2n1` yielded an IC50 of 76 µg/mL (≈ 309 µM).

Take `Cc1nc2sc(S(N)(=O)=O)nn2c(=O)c1/N=N/c1ccc(Cl)cc1`: the IC50 was 74 µg/mL (≈ 192 µM).

Consider `COc1ccc(C2C=C(c3ccc(N)cc3)N=C3SC(S(N)(=O)=O)=NN32)cc1` (centres undefined), for which the IC50 turned out to be 81 µg/mL (≈ 195 µM).

On to `Cc1ccc(/N=N/c2c(C)nc3sc(S(N)(=O)=O)nn3c2=O)cc1`, for which the IC50 was 81 µg/mL (≈ 222 µM).

The compound `Cc1nc2sc(S(N)(=O)=O)nn2c(=O)c1/N=N/c1ccc([N+](=O)[O-])cc1` returned an IC50 of 81 µg/mL (≈ 205 µM).

Consider `Cc1nc2sc(S(N)(=O)=O)nn2c(=O)c1/N=N/c1ccc(Br)cc1`, for which the IC50 worked out at 74 µg/mL (≈ 172 µM).

Tested on in a further data set: not listed separately
The data set can be described thus: Antitumor activity against mouse EAC cells xenografted in Swiss albino mouse assessed as increase in lifespan of organism at 100 ug administered 24 hrs post inoculation for 9 days.
Settings: not given
Format: functional, Ehrlich.
`Nc1ccc(C2=CC(c3ccc(Cl)cc3)N3N=C(S(N)(=O)=O)SC3=N2)cc1` (centres undefined): the Activity is reported as 71.43%.

For `NS(=O)(=O)C1=NN2C(=NC(c3ccccc3)=CC2c2ccc(Cl)cc2)S1` (centres undefined), the Activity was determined as 42.86%.

For `COc1ccc(C2C=C(c3ccccc3)N=C3SC(S(N)(=O)=O)=NN32)cc1OC` (centres undefined), the Activity worked out at 57.14%.

Tested on in another data set: not listed separately
The data set can be described thus: Antitumor activity against mouse EAC cells xenografted in Swiss albino mouse assessed as increase in lifespan of organism at 20 mg/kg, ip administered 24 hrs post inoculation for 9 days. Format: functional, Ehrlich. The note with it: route intraperitoneal.
As for `O=c1[nH]cc(F)c(=O)[nH]1` [FLUOROURACIL], the Activity amounted to 42.86%.

The test system of the next data set is Mus musculus. The data set can be described thus: Toxicity in Swiss albino mouse xenografted with mouse EAC assessed as haemoglobin level at 100 ug (reference value: 13.4 per g%). Format: organism-based. The note with it: in vivo.
As to `Nc1ccc(C2=CC(c3ccc(Cl)cc3)N3N=C(S(N)(=O)=O)SC3=N2)cc1` (centres undefined), the Activity is reported as 11.1%.

Another data set deals with Mus musculus. The data set can be described thus: Toxicity in Swiss albino mouse xenografted with mouse EAC assessed as haemoglobin level at 20 mg/kg, ip (reference value: 13.4 per g%). The format is organism-based. On the set-up: dose 20 mg/kg, route intraperitoneal. The note with it: in vivo.
`O=c1[nH]cc(F)c(=O)[nH]1` [FLUOROURACIL]: the Activity was 15.6%.

The subject of the next data set is Mus musculus. The data set can be described thus: Toxicity in Swiss albino mouse xenografted with mouse EAC assessed as RBC level at 100 ug (reference value: 5.1/10^6 mm-3). The format is organism-based. The note with it: in vivo.
Consider `Nc1ccc(C2=CC(c3ccc(Cl)cc3)N3N=C(S(N)(=O)=O)SC3=N2)cc1` (centres undefined), for which the Activity was determined as 5.96%.

Another data set relates to Mus musculus. The data set can be described thus: Toxicity in Swiss albino mouse xenografted with mouse EAC assessed as RBC level at 20 mg/kg, ip (reference value: 5.1/10^6 mm-3). The format is organism-based. On the set-up: dose 20 mg/kg, route intraperitoneal. Conditions: in vivo.
In the case of `O=c1[nH]cc(F)c(=O)[nH]1` [FLUOROURACIL], the Activity amounted to 5.87%.

In another data set the test system is Mus musculus. The data set can be described thus: Toxicity in Swiss albino mouse xenografted with mouse EAC assessed as total WBC level at 100 ug (reference value: 4.35/10^3 mm3). Format: organism-based. The note with it: in vivo.
Turning to `Nc1ccc(C2=CC(c3ccc(Cl)cc3)N3N=C(S(N)(=O)=O)SC3=N2)cc1` (centres undefined), the Activity is 9.45%.

The subject of a further data set is Mus musculus. The data set can be described thus: Toxicity in Swiss albino mouse xenografted with mouse EAC assessed as total WBC level at 20 mg/kg, ip (reference value: 4.35/10^3 mm3). The note with it: in vivo. Format: organism-based. On the set-up: dose 20 mg/kg, route intraperitoneal.
As for `O=c1[nH]cc(F)c(=O)[nH]1` [FLUOROURACIL], the Activity is listed as 14.7%.

A further data set deals with Mus musculus. The data set can be described thus: Toxicity in Swiss albino mouse xenografted with mouse EAC assessed as ALT level at 100 ug (reference value: 3.7 u/L). The note with it: in vivo. Format: organism-based.
For `Nc1ccc(C2=CC(c3ccc(Cl)cc3)N3N=C(S(N)(=O)=O)SC3=N2)cc1` (centres undefined), the Activity amounted to 6.7%.

The next data set relates to Mus musculus. The data set can be described thus: Toxicity in Swiss albino mouse xenografted with mouse EAC assessed as ALT level at 20 mg/kg, ip (reference value: 3.7 u/L). Format: organism-based. The arrangement: dose 20 mg/kg, route intraperitoneal. Conditions: in vivo.
For the compound `O=c1[nH]cc(F)c(=O)[nH]1` [FLUOROURACIL], the Activity was found to be 6.9%.

Another data set relates to Ehrlich. The data set can be described thus: Antitumor activity against mouse EAC cells xenografted in Swiss albino mouse assessed as reduction in viable tumor cells at 100 ug after 5 days using giemsa staining by microscopy.
Settings: not given
Format: functional.
Turning to `Nc1ccc(C2=CC(c3ccc(Cl)cc3)N3N=C(S(N)(=O)=O)SC3=N2)cc1` (centres undefined), the result was Active.

Consider `NS(=O)(=O)C1=NN2C(=NC(c3ccccc3)=CC2c2ccc(Cl)cc2)S1` (centres undefined), for which the outcome was Active.

Consider `COc1ccc(C2C=C(c3ccccc3)N=C3SC(S(N)(=O)=O)=NN32)cc1OC` (centres undefined), for which the result was Active.

The next data set relates to Ehrlich. The data set can be described thus: Antitumor activity against mouse EAC cells xenografted in Swiss albino mouse assessed as reduction in viable tumor cells at 20 mg/kg, ip after 5 days using giemsa staining by microscopy. The arrangement: dose 20 mg/kg. The format is functional, organism-based.
Settings: not given
For the compound `O=c1[nH]cc(F)c(=O)[nH]1` [FLUOROURACIL], the result was Active.
